The term IC50 denotes the concentration that gives 50% inhibition.

Consider seven molecules from US5332820A, “Dibenzobicyclo(2.2.2) octane angiotensin II antagonists” (priority 1991, dated 1994).

One data set deals with Renal Hypertensive Rats. Nature of the data set: Antihypertensive effects in renal hypertensive rats, intravenous activity. It counts as in vivo, rat. The note with it: awake renal artery-ligated rats; i.v.; 10 mg/kg (footnote). On the procedure:
This procedure increases blood pressure by increasing renin production with consequent elevation of AII levels. […] Arterial blood pressure is continuously measured directly through a carotid artery cannula and recorded using a pressure transducer and a polygraph. Blood pressure levels after treatment are compared to pretreatment levels to determine the antihypertensive effects of the compounds which were tested.

For data set [1], the target named is AII receptor (rat adrenal cortical microsomes). Briefly: Angiotensin II receptor binding (ligand-receptor binding assay; displacement of 3H-AII or 125I-AII). The note with it: 2 nM 3H-AII or 0.05 nM 125I-AII, 1 hour, room temperature. On the procedure:
The hormone angiotensin II (AII) produces numerous biological responses, e.g., vasoconstriction, through stimulation of its receptors on cell membranes. For the purpose of identifying compounds such as AII antagonists which are capable of interacting with the AII receptor, a ligand-receptor binding assay was utilized for the initial screen. The assay was carried out according to the method described by Glossmann, et al., J. Biol. Chem., 249, 825 (1974), but with some modifications. The reaction mixture contained rat adrenal cortical microsomes (source of AII receptor) in Tris buffer and 2 nM of ^3 H-AII or 0.05 nM ^125 I-AII with or without potential AII antagonist. This mixture was incubated for 1 hour at room temperature and the reaction was subsequently terminated by rapid filtration and rinsing through glass micro-fibre filter. Receptor-bound ^3 H-AII or ^125 I-AII trapped in filter was quantitated by scintillation counting. The inhibitory concentration (IC50) of potential AII antagonist which gives 50% displacement of the total specifically bound ^3 H-AII or ^125 I-AII is a measure of the affinity of such compound for the AII receptor.

Data set [2] deals with renal vasoconstrictor effect of indomethacin. The note with it: dogs with non-hypotensive hemorrhage; cited from earlier work.
In data set [3] the test system is arterial pressure in mammals and man. The note with it: cited from earlier work.
In data set [4] the test system is renal vasoconstrictor effect of indomethacin and meclofenamate. The note with it: dogs; cited from earlier work.
The test system of data set [5] is effects of AII on the blood pressure of pithed rats. The note with it: cited from earlier work.

`CCCCc1nc(Cl)c(C=O)n1Cc1ccc2c(c1)C1c3ccccc3C2C(C(=O)O)C1C(=O)O` (mixture of isomers) [Example 2A, (±)-trans-2-[(2-n-butyl-4-chloro-5-formylimidazol-1-yl)methyl]-9,10-dihydro-9,10-ethanoanthracene-11,12-dicarboxylic acids, both diastereomers]: the “Antihypertensive Effects in Renal Hypertensive Rats, Intravenous Activity” value (from here on “Antihypertensive Effects”) in the data set on Renal Hypertensive Rats was “+ (Significant decrease in blood pressure at 10 mg/kg or less)”. This molecule had an IC50 in data set [1] of 220 nM.
Take `C[C@H](CS)C(=O)N1CCC[C@H]1C(=O)O` [captopril]: the “reversal of renal vasoconstrictor effect of indomethacin” value in data set [2] is “reverse the renal vasoconstrictor effect of indomethacin in dogs”.
For the molecule `CCCCc1nc(Cl)c(C=O)n1Cc1ccc2c(c1)C1c3ccccc3C2C(c2nnn[nH]2)C1c1nnn[nH]1` (mixture of isomers) [Example 3, (±)-trans-2-[(2-n-butyl-4-chloro-5-formylimidazol-1-yl)methyl]-9,10-dihydro-9,10-ethano-11,12-bis (1H-tetrazol-5-yl)anthracene, both diastereomers], the “Antihypertensive Effects” value in the data set with Renal Hypertensive Rats is “+ (Significant decrease in blood pressure at 10 mg/kg or less)”. In data set [1], this molecule came in with an IC50 of 92 nM.
Taken in the same sequence, the figures for `CCCCc1nc(Cl)c(C=O)n1Cc1ccc2c(c1)C1c3ccccc3C2C(C(=O)O)C1C(=O)O` (mixture of isomers) [Example 2B, (±)-trans-2-[(2-n-butyl-4-chloro-5-formylimidazol-1-yl)methyl]-9,10-dihydro-9,10-ethanoanthracene-11,12-dicarboxylic acids, both diastereomers] were “+ (Significant decrease in blood pressure at 10 mg/kg or less)” and 320 nM.
For `CCCCc1nc(Cl)c(C=O)n1Cc1ccc2c(c1)C1c3ccccc3C2C(C(=O)O)C1C(=O)O` (mixture of isomers) [Example 1, (±)-cis-2-[(2-n-butyl-4-chloro-5-formylimidazol-1-yl)methyl]-9,10-dihydro-9,10-ethanoanthracene-11,12-dicarboxylic acid, a mixture of endo and oxo isomers], in that order: “+ (Significant decrease in blood pressure at 10 mg/kg or less)” and 1100 nM.
Regarding `CNCC(=O)N[C@@H](CCCN=C(N)N)C(=O)N[C@H](C(=O)N[C@@H](Cc1ccc(O)cc1)C(=O)N[C@H](C(=O)N[C@@H](Cc1cnc[nH]1)C(=O)N1CCC[C@H]1C(=O)N[C@@H](C)C(=O)O)C(C)C)C(C)C` [Saralasin], the “effect on arterial pressure when the (elevated) pressure is dependent on circulating AII” value in data set [3] (mammals and man, AII-dependent pressure) was “lower arterial pressure in mammals and man”. For the same molecule, in data set [3] (oral doses), the oral effectiveness result is recorded as “oral doses being ineffective”. Also, the duration of action result in data set [3] (parenteral administration) is listed as “relatively short-lasting”. In addition, the “effect when the pressure is not sustained by AII (agonistic character)” value in data set [3] (pressure not sustained by AII) was “generally elicits pressor effects”. For the same molecule, in data set [4], the “inhibition of renal vasoconstrictor effect of indomethacin and meclofenamate” value is “inhibit the renal vasoconstrictor effect of indomethacin and meclofenamate in dogs”. In addition, in data set [5], the “block of the effects of AII on blood pressure of pithed rats” value was “blocks the effects of AII on the blood pressure of pithed rats”.
On to `CCCCc1nc(Sc2ccccc2)c(C=O)n1Cc1ccc2c(c1)C1c3ccccc3C2C(c2nnn[nH]2)C1c1nnn[nH]1` (mixture of isomers) [Example 4, (±)-trans-2-[(2-n-butyl-4-phenylthio-5-formylimidazol-l-yl)methyl]-9,10-dihydro-9,10-ethano-11,12-bis (1H-tetrazol-5-yl) anthracene: one diastereomer], for which, in the data set with Renal Hypertensive Rats, the “Antihypertensive Effects” value is reported as “+ (Significant decrease in blood pressure at 10 mg/kg or less)”. Besides, the IC50 in data set [1] amounted to 460 nM.
